Measured values as given in patent US7811352B2, “Fertilizer compositions and methods of using” (priority 2005, dated 2010).
Marks after values point to notes of the source that are not given here.

Assays:
Type in all cases: in vivo
[1] = tested on: Bermuda grass; assay: Turfgrass quality and color ratings, Bermuda grass golf course fairways (Example 13); conditions: scale 1-10
Protocol: In this Example, the effect of a fertilizer comprising lysine on turfgrass growth was examined. The effects of lysine (HCl) and LIQUID LYSINE on a common type of golf course fairway quality turfgrass (Bermuda green) were compared with those of CoRoN® brand fertilizer.
Six fertilizer treatments comprising two concentrations of each fertilizer composition (Coron® (N—P—K, 14-2-14), LIQUID LYSINE (N—P—K, 10-2-1), and lysine (HCl) (N—P—K, 15-2-1)) were prepared and applied to 3 replications of Bermuda grass for use on golf course fairways. The lysine (HCl) was applied as a granular using a Scotts 2 foot drop spreader on a setting of 4.5. The solutions of LIQUID LYSINE and Coran were applied using a Birchmeier backpack sprayer with a 5 foot spray pattern. Each fertilizer treatment was applied in concentrations 3.0 lb N/1000 ft^2 and 6.0 lb N/1000 ft^2. Plot size was 5 ft×60 ft set up as a randomized complete block. Irrigation was applied following application, Plots were rated for turfgrass quality and color (scale of 1-10 where 10=dark green turf 1=dead/brown turf and 6=minimally acceptable turf) and phytotoxicity (% burn) throughout the study period and compared with two untreated plots. […] All data was subject to statistical analysis and significant means were determined.

[2] = tested on: green height, creeping bentgrass; assay: Injury rating of green height creeping bentgrass after fertilization (Example 4); conditions: about two weeks after application
Protocol: In this Example, the efficacy of fertilizers on green height, creeping bentgrass was examined. Fertilizer compositions according to several embodiments of the present disclosure were prepared and compared to the commercial fertilizer products, urea 46-0-0 (granular) fertilizer, Lebanon fertilizer 21-0-12 (granular, commercially available from Lebanon Seaboard Corporation, Lebanon, Pa.) and Milorganite 6-2-0 (granular, commercially available from Milorganite, Milwaukee, Wis.). The fertilizer compositions were applied to the turf grass prior to winter dormancy of the turf at a rate equivalent to supplying about 1.0 pounds of nitrogen (N) per 1000 square feet. Each of the fertilizer compositions were applied at substantially equal rates of pounds (lbs) of nitrogen (N) per 1000 square feet. Table 1 illustrates the response of green height (i.e., the height of grass on golf course green), creeping bentgrass to fertilization using various exemplary fertilizers of the present invention, taken about two weeks after application of the fertilizer. The letters in the Color and Injury columns correspond to Duncan's Multiple Range Test. Numbers (means) in a column followed by the same letter are not statistically different at P=0.05.

[3] = tested on: Bermuda grass; assay: Turfgrass quality and color ratings, Bermuda grass fairway (Example 10); parameters: key: 1-10; 10 = dark green turf, 1 = dead/brown, 6 = minimally acceptable; conditions: scale 1-10
Excerpt: In this Example, the effect of a fertilizer comprising lysine on warm season turfgrass growth was examined. The effects of lysine (HCl) and LIQUID LYSINE on a common type of golf course fairway quality turfgrass (Bermuda grass) were compared with those of urea and Milorganite.
Fifteen fertilizer treatments comprising three concentrations of each fertilizer composition (Milorganite (N—P—K, 6-2-0), urea (N—P—K, 46-0-0), LIQUID LYSINE (N—P—K, 10-2-1), and both granular and aqueous lysine (HCl) (N—P—K, 15-2-1)) were prepared and applied to 4 replications of Bermuda grass. The aqueous lysine (HCl) was dissolved in water prior to application. Each fertilizer treatment was applied in concentrations of 0.5 lb N/1000 ft^2/month, 1.0 lb N/1000 ft^2/month and 3.0 lb N/1000 ft^2/month. The urea, LIQUID LYSINE and aqueous lysine (HCl) were applied as foliar liquids, while Milorganite and granular lysine (HCl) were applied as granular fertilizers Plot size was 1 m×2 m set up as a randomized complete block. Plots were mowed at 0.5 inches before fertilizer application. Irrigation (0.15 inch) was applied following application. Plots were rated for turfgrass quality and color (scale of 1-10 where 10=dark green turf, 1=dead/brown turf, and 6=minimally acceptable turf) and phytotoxicity (scale of 0-5, where 5=worst, and 2=minimally objectionable) throughout the study period. Quality, color, and phytotoxicity were measured on 2 days before application (day −2) and day 2, day 5, day 15 and day 21 after application. All data was subject to statistical analysis and significant means were determined. Average turfgrass quality ratings for the treatments are presented in Table 9 and the quality results for application rates of 1.0 lb N/1000 ft^2/month are graphically presented in FIG. 4.

[4] = Rate 3.0 lb N/1000 ft^2, Day 12
[5] = Rate 3.0 lb N/1000 ft^2, Day 19
[6] = Rate 3.0 lb N/1000 ft^2, Day 26
[7] = Rate 3.0 lb N/1000 ft^2, Day 33
[8] = Rate 3.0 lb N/1000 ft^2, Day 40
[9] = Rate 3.0 lb N/1000 ft^2, Day 47
[10] = Rate 6.0 lb N/1000 ft^2, Day 12
[11] = Rate 6.0 lb N/1000 ft^2, Day 19
[12] = Rate 6.0 lb N/1000 ft^2, Day 26
[13] = Rate 6.0 lb N/1000 ft^2, Day 33
[14] = Rate 6.0 lb N/1000 ft^2, Day 40
[15] = Rate 6.0 lb N/1000 ft^2, Day 47
[16] = Monthly Rate 0.5 lbs N/1000 ft^2, Day 2
[17] = Monthly Rate 0.5 lbs N/1000 ft^2, Day 5
[18] = Monthly Rate 0.5 lbs N/1000 ft^2, Day 15
[19] = Monthly Rate 0.5 lbs N/1000 ft^2, Day 21
[20] = Monthly Rate 0.5 lbs N/1000 ft^2, Day −2 (before application)
[21] = Monthly Rate 1.0 lbs N/1000 ft^2, Day 2
[22] = Monthly Rate 1.0 lbs N/1000 ft^2, Day 5
[23] = Monthly Rate 1.0 lbs N/1000 ft^2, Day 15
[24] = Monthly Rate 1.0 lbs N/1000 ft^2, Day 21
[25] = Monthly Rate 1.0 lbs N/1000 ft^2, Day −2 (before application)
[26] = Monthly Rate 3.0 lbs N/1000 ft^2, Day 2
[27] = Monthly Rate 3.0 lbs N/1000 ft^2, Day 5
[28] = Monthly Rate 3.0 lbs N/1000 ft^2, Day 15
[29] = Monthly Rate 3.0 lbs N/1000 ft^2, Day 21
[30] = Monthly Rate 3.0 lbs N/1000 ft^2, Day −2 (before application)

For `Cl.NCCCC[C@H](N)C(=O)O` [Lys (HCl) 15% N, L-lysine monohydrochloride], the “Color Ratings - Bermuda Grass” value ([1]; Rate 3.0 lb N/1000 ft^2, Day 7) was 5.7ab, the “Quality Ratings - Bermuda Grass” value ([1]; Rate 3.0 lb N/1000 ft^2, Day 7) was 6.7a and the “Color Ratings - Bermuda Grass” value [1, 4] was 6.0b. The “Quality Ratings - Bermuda Grass” value [1, 4] was 7.3ab, the “Color Ratings - Bermuda Grass” value [1, 5] was 6.7a and the “Quality Ratings - Bermuda Grass” value [1, 5] was 7.3ab. For the same molecule, the “Color Ratings - Bermuda Grass” value [1, 6] was 7.3a, the “Quality Ratings - Bermuda Grass” value [1, 6] was 7.7ab and the “Color Ratings - Bermuda Grass” value [1, 7] was 7.7ab. The “Quality Ratings - Bermuda Grass” value [1, 7] was 8.0a, the “Color Ratings - Bermuda Grass” value [1, 8] was 7.0b and the “Quality Ratings - Bermuda Grass” value [1, 8] was 7.0b. The “Color Ratings - Bermuda Grass” value [1, 9] was 7.0bc, the “Quality Ratings - Bermuda Grass” value [1, 9] was 7.3ab and the “Color Ratings - Bermuda Grass” value ([1]; Rate 6.0 lb N/1000 ft^2, Day 7) was 5.3ab. The “Quality Ratings - Bermuda Grass” value ([1]; Rate 6.0 lb N/1000 ft^2, Day 7) was 6.7a, the “Color Ratings - Bermuda Grass” value [1, 10] was 6.7a and the “Quality Ratings - Bermuda Grass” value [1, 10] was 7.3ab. For the same molecule, the “Color Ratings - Bermuda Grass” value [1, 11] was 7.0a, the “Quality Ratings - Bermuda Grass” value [1, 11] was 7.3ab and the “Color Ratings - Bermuda Grass” value [1, 12] was 7.7a. For the same molecule, the “Quality Ratings - Bermuda Grass” value [1, 12] was 7.7ab, the “Color Ratings - Bermuda Grass” value [1, 13] was 7.7ab and the “Quality Ratings - Bermuda Grass” value [1, 13] was 7.7a. The “Color Ratings - Bermuda Grass” value [1, 14] was 7.3ab, the “Quality Ratings - Bermuda Grass” value [1, 14] was 7.0b and the “Color Ratings - Bermuda Grass” value [1, 15] was 7.3ab. For the same molecule, the “Quality Ratings - Bermuda Grass” value [1, 15] was 7.7a.

`NC(N)=O` [Urea, urea, reference compound] was tested, and the “Injury 1-9 (9 = no injury)” value ([2]; 1.09 Lbs. product/1000 square feet) was 8.0^a,b,c, the “Injury 1-9 (9 = no injury)” value ([2]; 2.17 Lbs. product/1000 square feet) was 8.7^a and the “Injury 1-9 (9 = no injury)” value ([2]; 6.51 Lbs. product/1000 square feet) was 8.3^a,b. The “Color Ratings - Bermuda Grass” value [3, 16] was 7.4, the “Quality Ratings - Bermuda Grass” value [3, 16] was 7.5ab and the “Color Ratings - Bermuda Grass” value [3, 17] was 7.6efg. The “Quality Ratings - Bermuda Grass” value [3, 17] was 7.5cd, the “Color Ratings - Bermuda Grass” value [3, 18] was 7.4de and the “Quality Ratings - Bermuda Grass” value [3, 18] was 7.5de. For the same molecule, the “Color Ratings - Bermuda Grass” value [3, 19] was 7.6cd, the “Quality Ratings - Bermuda Grass” value [3, 19] was 7.5f and the “Color Ratings - Bermuda Grass” value [3, 20] was 6.5. For the same molecule, the “Quality Ratings - Bermuda Grass” value [3, 20] was 6.3, the “Color Ratings - Bermuda Grass” value [3, 21] was 7.6 and the “Quality Ratings - Bermuda Grass” value [3, 21] was 7.5ab. For the same molecule, the “Color Ratings - Bermuda Grass” value [3, 22] was 8.0def, the “Quality Ratings - Bermuda Grass” value [3, 22] was 7.9abc and the “Color Ratings - Bermuda Grass” value [3, 23] was 7.3de. The “Quality Ratings - Bermuda Grass” value [3, 23] was 7.6de, the “Color Ratings - Bermuda Grass” value [3, 24] was 7.6cd and the “Quality Ratings - Bermuda Grass” value [3, 24] was 7.6ef. The “Color Ratings - Bermuda Grass” value [3, 25] was 6.5, the “Quality Ratings - Bermuda Grass” value [3, 25] was 6.3 and the “Color Ratings - Bermuda Grass” value [3, 26] was 8.0. For the same molecule, the “Quality Ratings - Bermuda Grass” value [3, 26] was 8.1a, the “Color Ratings - Bermuda Grass” value [3, 27] was 8.8ab and the “Quality Ratings - Bermuda Grass” value [3, 27] was 8.3ab. The “Color Ratings - Bermuda Grass” value [3, 28] was 7.5cde, the “Quality Ratings - Bermuda Grass” value [3, 28] was 7.9de and the “Color Ratings - Bermuda Grass” value [3, 29] was 7.9bcd. For the same molecule, the “Quality Ratings - Bermuda Grass” value [3, 29] was 7.8def, the “Color Ratings - Bermuda Grass” value [3, 30] was 6.4 and the “Quality Ratings - Bermuda Grass” value [3, 30] was 6.1.
